Results taken from patent publication US20190225650A1, “PEPTIDOMIMETIC MACROCYCLES AND USE THEREOF IN REGULATING HIF1ALPHA” (AILERON THERAPEUTICS, INC., priority 2013, published 2019).
Bridge positions count the residues as written; N and C are the ends. Square brackets hold non-standard residues; d marks the D form. Peptide text beside a SMILES is read from it. S5 = C=CCCC[C@](C)(N)C(=O)O; Nle = CCCC[C@H](N)C(=O)O; Dap = NC[C@H](N)C(=O)O

System: HRE-bla ME-180 cells
Test: Reporter gene assay (HRE-bla ME-180 HIF reporter, GeneBLAzer)
Type: cell-based, human
Conditions: for EC50: 24 hour normoxia
In short: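 A FRET β-lactamase readout of HIF transcription was used. After compound treatment in 0.3% DMSO/media under normoxic conditions, 20 μl of 6× LiveBLAzer-FRET B/G (CCF4-AM) substrate was added. Plates sat 3 hr at room temperature in the dark and were read at 409 Ex/460Em and 409Ex/530Em on a Synergy 2. Inhibition was compared against DMSO vehicle controls, with chetomin as positive control.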

Structure (SMILES)	EC50 [µM]	18 h Avg % max inhibition at top conc (HIF Rptr-24 hrs normoxia) (μM)
CCCC[C@H](NC(=O)[C@H](CC(C)C)NC(=O)[C@@H](NC(=O)[C@H](CCC(=O)O)NC(=O)[C@H](CCC(=O)O)NC(=O)[C@H](CC(=O)O)NC(=O)[C@@H](NC(=O)[C@H](Cc1ccccc1)NC(C)=O)[C@@H](C)CC)C(C)C)C(=O)N[C@@]1(C)CCCC=CCCC[C@@](C)(C(=O)N[C@@H](CCCC)C(=O)N[C@@H](C)C(=O)N[C@@H](CCC(=O)O)C(=O)N[C@@H](CC(=O)O)C(=O)N[C@@H](CCCNC(=N)N)C(=O)N[C@H](C(N)=O)[C@@H](C)CC)NC(=O)[C@H]([C@@H](C)CC)NC(=O)[C@H](C(C)C)NC(=O)[C@H](CC(C)C)NC1=O [SP-40] (Ac-FIDEEVL[Nle][S5]LVI[S5][Nle]AEDRI-NH2; staple 9-13)	> 30	+ (<10: +)
CCCC[C@H](NC(=O)[C@H](CCC(=O)O)NC(=O)[C@@H](NC(=O)[C@H](CCC(=O)O)NC(=O)[C@H](CCC(=O)O)NC(=O)[C@H](CC(=O)O)NC(=O)[C@@H](NC(=O)[C@H](Cc1ccccc1)NC(C)=O)[C@@H](C)CC)C(C)C)C(=O)N[C@@]1(C)CCCC=CCCC[C@@](C)(C(=O)N[C@@H](CCCC)C(=O)N[C@@H](C)C(=O)N[C@@H](CC(C)C)C(=O)N[C@@H](CC(=O)O)C(=O)N[C@@H](CCCNC(=N)N)C(=O)N[C@H](C(N)=O)[C@@H](C)CC)NC(=O)[C@H]([C@@H](C)CC)NC(=O)[C@H](C(C)C)NC(=O)[C@H](CC(C)C)NC1=O [SP-33] (Ac-FIDEEVE[Nle][S5]LVI[S5][Nle]ALDRI-NH2; staple 9-13)	> 30	+++ (≤25 but <50: +++)
CCCC[C@H](NC(=O)[C@H](CC(C)C)NC(=O)[C@@H](NC(=O)[C@H](CO)NC(=O)[C@H](CCC(=O)O)NC(=O)[C@H](CC(=O)O)NC(=O)[C@@H](NC(=O)[C@H](Cc1ccccc1)NC(C)=O)[C@@H](C)CC)C(C)C)C(=O)N[C@@]1(C)CCCC=CCCC[C@@](C)(C(=O)N[C@@H](CCCC)C(=O)N[C@@H](C)C(=O)N[C@@H](CC(C)C)C(=O)N[C@@H](CC(=O)O)C(=O)N[C@@H](CCCNC(=N)N)C(=O)N[C@H](C(N)=O)[C@@H](C)CC)NC(=O)[C@H]([C@@H](C)CC)NC(=O)[C@H](C(C)C)NC(=O)[C@H](CC(C)C)NC1=O [SP-47] (Ac-FIDESVL[Nle][S5]LVI[S5][Nle]ALDRI-NH2; staple 9-13)	5 to 15	++++ (≥50: ++++)
CCCC[C@H](NC(=O)[C@H](CC(C)C)NC(=O)[C@@H](NC(=O)[C@H](CCC(=O)O)NC(=O)[C@H](CCC(=O)O)NC(=O)[C@H](CC(=O)O)NC(=O)[C@@H](NC(=O)[C@H](Cc1ccccc1)NC(C)=O)[C@@H](C)CC)C(C)C)C(=O)N[C@@]1(C)CCCC=CCCC[C@@](C)(C(=O)N[C@@H](CCCC)C(=O)N[C@@H](C)C(=O)N[C@@H](CC(C)C)C(=O)N[C@@H](CC(=O)O)C(=O)N[C@@H](CCCNC(=N)N)C(=O)N[C@H](C(N)=O)[C@@H](C)CC)NC(=O)[C@H](CO)NC(=O)[C@H](C(C)C)NC(=O)[C@H](CC(C)C)NC1=O [SP-53] (Ac-FIDEEVL[Nle][S5]LVS[S5][Nle]ALDRI-NH2; staple 9-13)	5 to 15	+++ (≤25 but <50: +++)
CCCC[C@H](NC(=O)[C@H](CC(C)C)NC(=O)[C@@H](NC(=O)[C@H](CCC(=O)O)NC(=O)[C@H](CCC(=O)O)NC(=O)[C@H](CC(=O)O)NC(=O)[C@@H](NC(=O)[C@H](Cc1ccccc1)NC(C)=O)[C@@H](C)CC)C(C)C)C(=O)N[C@@]1(C)CCCC=CCCC[C@@](C)(C(=O)N[C@@H](CCCC)C(=O)N[C@@H](C)C(=O)N[C@@H](CC(C)C)C(=O)N[C@@H](CC(=O)O)C(=O)N[C@@H](CCCNC(=N)N)C(=O)N[C@H](C(N)=O)[C@@H](C)CC)NC(=O)[C@H](CN)NC(=O)[C@H](C(C)C)NC(=O)[C@H](CC(C)C)NC1=O [SP-65] (Ac-FIDEEVL[Nle][S5]LV[Dap][S5][Nle]ALDRI-NH2; staple 9-13)	> 30	+ (<10: +)
CCCC[C@H](NC(=O)[C@H](CC(C)C)NC(=O)[C@@H](NC(=O)[C@H](CCC(=O)O)NC(=O)[C@H](CCC(=O)O)NC(=O)[C@H](CC(=O)O)NC(=O)[C@@H](NC(=O)[C@H](Cc1ccccc1)NC(C)=O)[C@@H](C)CC)C(C)C)C(=O)N[C@@]1(C)CCCC=CCCC[C@@](C)(C(=O)N[C@@H](CCCC)C(=O)N[C@@H](C)C(=O)N[C@@H](CC(C)C)C(=O)N[C@@H](CC(=O)O)C(=O)N[C@@H](CCCNC(=N)N)C(=O)N[C@H](C(N)=O)[C@@H](C)CC)NC(=O)[C@H]([C@@H](C)CC)NC(=O)[C@H](C(C)C)NC(=O)[C@H](C)NC1=O [SP-17] (Ac-FIDEEVL[Nle][S5]AVI[S5][Nle]ALDRI-NH2; staple 9-13)	5 to 15	++++ (≥50: ++++)
CC[C@H](C)[C@H](NC(=O)[C@H](CCCNC(=N)N)NC(=O)[C@H](CC(=O)O)NC(=O)[C@H](CC(C)C)NC(=O)CNC(=O)[C@H](CCSC)NC(=O)[C@H](CCC(=O)O)NC(=O)[C@@H](NC(=O)[C@@H](NC(=O)[C@H](CC(C)C)NC(=O)[C@H](CO)NC(=O)[C@]1(C)CCCC=CCCC[C@](C)(NC(=O)[C@H](CC(=O)O)NC(=O)[C@@H](NC(=O)[C@H](Cc2ccccc2)NC(C)=O)[C@@H](C)CC)C(=O)N[C@@H](CCC(=O)O)C(=O)N[C@@H](C(C)C)C(=O)N[C@@H](CC(C)C)C(=O)N1)C(C)C)[C@@H](C)CC)C(=O)N[C@@H](CCCCN)C(=O)N[C@@H](CCC(=O)O)C(=O)N[C@@H](CC(C)C)C(=O)N1CCC[C@H]1C(=O)N[C@@H](CCC(=O)O)C(=O)N[C@@H](CC(C)C)C(=O)N[C@@H](Cc1c[nH]c2ccccc12)C(=O)N[C@@H](CC(C)C)C(N)=O [SP-76] (Ac-FID[S5]EVL[S5]SLVIEMGLDRIKELPELWL-NH2; staple 4-8)	> 30	+ (<10: +)

The next lines start with results.

EC50 [µM]	Structure (SMILES)	18 h Avg % max inhibition at top conc (HIF Rptr-24 hrs normoxia) (μM)
5 to 15	CCCC[C@H](NC(=O)[C@H](CC(C)C)NC(=O)[C@@H](NC(=O)[C@H](CCC(=O)O)NC(=O)[C@H](CCC(=O)O)NC(=O)[C@H](CC(=O)O)NC(=O)[C@@H](NC(=O)[C@H](Cc1ccccc1)NC(C)=O)[C@@H](C)CC)C(C)C)C(=O)N[C@@]1(C)CCCC=CCCC[C@@](C)(C(=O)N[C@@H](C)C(=O)N[C@@H](C)C(=O)N[C@@H](CC(C)C)C(=O)N[C@@H](CC(=O)O)C(=O)N[C@@H](CCCNC(=N)N)C(=O)N[C@H](C(N)=O)[C@@H](C)CC)NC(=O)[C@H]([C@@H](C)CC)NC(=O)[C@H](C(C)C)NC(=O)[C@H](CC(C)C)NC1=O [SP-20] (Ac-FIDEEVL[Nle][S5]LVI[S5]AALDRI-NH2; staple 9-13)	++++ (≥50: ++++)
5 to 15	CC[C@H](C)[C@H](NC(=O)[C@H](CCCNC(=N)N)NC(=O)[C@H](CC(=O)O)NC(=O)[C@H](CC(C)C)NC(=O)[C@H](C)NC(=O)[C@H](C)NC(=O)[C@]1(C)CCCC=CCCC[C@](C)(NC(=O)[C@H](C)NC(=O)[C@H](CC(C)C)NC(=O)[C@@H](NC(=O)[C@H](CCC(=O)O)NC(=O)[C@H](CCC(=O)O)NC(=O)[C@H](CC(=O)O)NC(=O)[C@@H](NC(=O)[C@H](Cc2ccccc2)NC(C)=O)[C@@H](C)CC)C(C)C)C(=O)N[C@@H](CC(C)C)C(=O)N[C@@H](C(C)C)C(=O)N[C@@H]([C@@H](C)CC)C(=O)N1)C(N)=O [SP-26] (Ac-FIDEEVLA[S5]LVI[S5]AALDRI-NH2; staple 9-13)	++++ (≥50: ++++)
5 to 15	CCCC[C@H](NC(=O)[C@H](CC(C)C)NC(=O)[C@@H](NC(=O)[C@H](CCC(=O)O)NC(=O)[C@H](CCC(=O)O)NC(=O)[C@H](CC(=O)O)NC(=O)[C@@H](NC(=O)[C@H](Cc1ccccc1)NC(C)=O)[C@@H](C)CC)C(C)C)C(=O)N[C@@]1(C)CCCC=CCCC[C@@](C)(C(=O)N[C@@H](CCCC)C(=O)N[C@@H](C)C(=O)N[C@@H](CC(C)C)C(=O)N[C@@H](CC(=O)O)C(=O)N[C@@H](CCCNC(=N)N)C(=O)N[C@H](C(N)=O)[C@@H](C)CC)NC(=O)[C@H](C)NC(=O)[C@H](C(C)C)NC(=O)[C@H](CC(C)C)NC1=O [SP-19] (Ac-FIDEEVL[Nle][S5]LVA[S5][Nle]ALDRI-NH2; staple 9-13)	+++ (≤25 but <50: +++)
5 to 15	CCCC[C@H](NC(=O)[C@H](CC(C)C)NC(=O)[C@@H](NC(=O)[C@H](CCC(=O)O)NC(=O)[C@H](CCC(=O)O)NC(=O)[C@H](CC(=O)O)NC(=O)[C@@H](NC(=O)[C@H](Cc1ccccc1)NC(C)=O)[C@@H](C)CC)C(C)C)C(=O)N[C@@]1(C)CCCC=CCCC[C@@](C)(C(=O)N[C@@H](CCCC)C(=O)N[C@@H](C)C(=O)N[C@@H](CC(C)C)C(=O)N[C@@H](CC(=O)O)C(=O)N[C@@H](C)C(=O)N[C@H](C(N)=O)[C@@H](C)CC)NC(=O)[C@H]([C@@H](C)CC)NC(=O)[C@H](C(C)C)NC(=O)[C@H](CC(C)C)NC1=O [SP-24] (Ac-FIDEEVL[Nle][S5]LVI[S5][Nle]ALDAI-NH2; staple 9-13)	++++ (≥50: ++++)
≤ 5	CCCC[C@H](NC(=O)[C@H](CC(C)C)NC(=O)[C@@H](NC(=O)[C@H](CCC(=O)O)NC(=O)[C@H](CCC(=O)O)NC(=O)[C@H](CC(=O)O)NC(=O)[C@@H](NC(=O)[C@H](Cc1ccccc1)NC(C)=O)[C@@H](C)CC)C(C)C)C(=O)N[C@@]1(C)CCCC=CCCC[C@@](C)(C(=O)N[C@@H](CO)C(=O)N[C@@H](C)C(=O)N[C@@H](CC(C)C)C(=O)N[C@@H](CC(=O)O)C(=O)N[C@@H](CCCNC(=N)N)C(=O)N[C@H](C(N)=O)[C@@H](C)CC)NC(=O)[C@H]([C@@H](C)CC)NC(=O)[C@H](C(C)C)NC(=O)[C@H](CC(C)C)NC1=O [SP-54] (Ac-FIDEEVL[Nle][S5]LVI[S5]SALDRI-NH2; staple 9-13)	++++ (≥50: ++++)
